Six molecules from patent US11571426B2, “Compositions for preventing or treating lupus” (CHONG KUN DANG PHARMACEUTICAL CORP., priority 2017, dated 2023) can be followed below.

The subject of series [1] is CTLA4 (cytotoxic T-lymphocyte-associated protein 4) in the regulatory T cells. In words: CTLA4 expression in regulatory T cells (flow cytometry). In kind it is cell-based, mouse. As to conditions: 1000 nM. How it is done: To identify if the compounds according to the present invention regulate a function of regulatory T cells in immune responses, compounds 255, 280, 374, 416 and 476 were treated, and then an expression level of an immune checkpoint receptor CTLA4 (cytotoxic T-lymphocyte-associated protein 4) in the regulatory T cells was measured by means of flow cytometry.
Specifically, a six-week old C57BL6 male mice were supplied from Central Lab Animal Inc., then acclimated for one week, and then used in an experiment. A spleen was isolated from the mouse, and then treated with collagenase D (Roche, 11088866001), such that splenocytes were isolated therefrom. CD4+CD25− T cells were isolated by means of a CD4+CD25+ regulatory T cell isolation kit (Miltenyi Biotec, 130-091-041), and then CD4+CD25− T cells (at a ratio of 5×10^5 cells/well) were treated with an anti-CD3c/anti-CD28 mAb bead (T cell activation/expansion kit, Miltenyi Biotec, 130-093627) and a mouse recombinant TGF-β2 for six days, such that they were differentiated into iTreg. A test drug was simultaneously treated for six days, during which the cells were differentiated into iTreg. After that, the cells were incubated by means of anti-CD^4/anti-CD25 mAb (eBioscience, 25-0042-82, 17-0251-82) at 4° C. for 20 minutes, and then labeling was performed. […]
On the technique in general: Flow cytometry measures light scatter and fluorescence of single cells or particles in a stream.

In series [2] the test system is TNFα secretion in LPS-stimulated human monocyte cell lines (THP-1). In words: Suppression of TNFα secretion in LPS-stimulated THP-1 (ELISA). In kind it is cell-based. How it is done: To identify the efficacy of the inventive compounds on suppressing a TNFα secretion in immune responses, suppression of TNFα production, which was achieved by a treatment with compounds 374, 461, 500, 530 and 532 according to the present invention in LPS-stimulated human monocyte cell lines (THP-1), was quantified by means of an enzyme immuno-assay (ELISA).
Specifically, the THP-1 cell lines (ATCC) were cultured in an RPMI-1640 medium comprising 10% FBS. The cell lines were divided into a 24 well plate at a ratio of 1×10^5 cells per well, then treated with 100 ng/mL PMA (phorbol 12-myristate 13-acetate) for 24 hours, and then differentiated into macrophage. Then, the culture medium was replaced with a new one, then treated with a test drug for 24 hours, and then treated again with 10 ng/mL LPS (E. Coli, O55:B5) for four hours for stimulation. After that, supernatant was taken and used to measure the amount of TNFα secreted from the cells by means of a Human TNFα Instant ELISA kit (eBioscience, BMS223INST) according to a protocol provided by a manufacturer.
In general terms: An ELISA detects its analyte on a solid surface through an enzyme-linked reagent.

Series [3] concerns NZB/W F1 female mice. In words: Serum cytokine level (Milliplex MAP kit) in SLE disease mouse. Conditions: group P, 5 mg/kg/day i.p., n = 13. It counts as in vivo. How it is done:
(§1) 80 NZB/W F1 female mice (four weeks old) were purchased from Jackson Laboratory and maintained in an SPF breeding room with five mice per cage. Their weight and urine protein were measured at 24 weeks after birth (right before administration), and then all the animals except those having too much urine protein were divided into groups as shown in a table 2 below such that the urine protein and weight might be evenly distributed among the groups.
(§2) Then, the mice were administered as described in the table 2 once a day for about 19 weeks from 24 weeks after birth to 42 weeks after birth.
(§3) The fresh urine of mice was collected before and after administration every two weeks, while blood collection was performed before and after administration every four weeks. The serum was prepared by centrifugation of the collected blood and then kept at −70° C.
To analyze an effect of the inventive pharmaceutical composition on a change in a serum cytokine level in the SLE disease mouse, a level of GM-CSF, IFN-γ, IL-1α, IL-1β, IL-10, IL-12(p70), IL-15, IL-17a, IL-2, IL-4, IL-6, TNF-α, […], IL-22 and IL-23 in serum was measured by means of a Mouse cytokine Milliplex MAP kit (Merck Millipore), wherein the results thereof were shown in a table 3.
Data obtained from groups were compared using a Kruskal-Wallis (†p<0.05) *p<0.05 versus C group (Mann-Whitney U-test)

The test system of series [4] is NZB/W F1 female mice. Briefly: Serum chemistry after long-term administration. In kind it is in vivo, mouse. As to conditions: group P, 5 mg/kg/day i.p.; serum at autopsy. How it is done:
as §1, §2
Data obtained from groups were compared using a Kruskal-Wallis (†p<0.05), *p<0.05 versus C group (Mann-Whitney U-test), ALT: alanine aminotransferase, AST: aspartate aminotransferase, ALP: alkaline phosphatase, TBIL: total bilirubin, TCHOL: total cholesterol, TG: triglyceride, TP: total protein, CPK: creatine phosphokinase)

Series [5] relates to NZB/W F1 female mice. In words: Proteinuria and UP/C in SLE model mouse. It counts as in vivo. Conditions: positive control 5 mg/kg/day; 42 weeks old. How it is done:
as §1, §2, §3
A urine creatinine concentration was obtained by diluting the urine 100-fold, then measuring the concentration thereof by means of a serum chemistry analyzer (Dri-CHEM 3000 colorimetric analyzer, Fujifilm), and then calibrating the measured value using a dilution factor.

In series [6] the test system is NZB/W F1 female mice. Briefly: T cell populations in spleen (FACS) in SLE disease mouse. As to conditions: positive control 5 mg/kg/day; vs negative control. It counts as in vivo.
Where [7] appears, read: on increasing concentration from 100 nM to 300 nM.

Marks after values point to notes of the source that are not given here.

Turning to `O=C(NO)c1ccc(CN(C(=O)N2CCOCC2)c2cccc(Br)c2)cc1` [Compound 255, N-(3-bromophenyl)-N-(4-(hydroxycarbamoyl)benzyl)morpholine-4-carboxamide], the cytotoxicity entry in series [1] is recorded as “severe cytotoxicity”.
For `CCN1CCN(C(=O)N(Cc2ccc(C(=O)NO)cc2)c2cccc(C(F)(F)F)c2)CC1` [Compound 461, 4-ethyl-N-(4-(hydroxycarbamoyl)benzyl)-N-(3-(trifluoromethyl)phenyl)piperazine-1-carboxamide], the “level of TNFα secretion” value in series [2] (at both 100 nM and 300 nM) is recorded as “remarkably decreased”.
Turning to `O=C(NO)c1ccc(CN(C(=O)N2CCOCC2)c2cccc(CF)c2)cc1` [Compound 500, N-(3-(fluoromethyl)phenyl)-N-(4-(hydroxycarbamoyl)benzyl)morpholine-4-carboxamide], the “level of TNFα secretion” value in series [2] (at both 100 nM and 300 nM) is given as “remarkably decreased”.
Take `O=C(NO)c1ccc(CN(C(=O)N2CCOCC2)c2cccc(F)c2)cc1` [Compound 530, N-(3-fluorophenyl)-N-(4-(hydroxycarbamoyl)benzyl)morpholine-4-carboxamide]: in series [2] (setting [7]), the “level of TNFα secretion” value was “drastically decreased”.
Regarding `O=C(NO)c1ccc(CN(C(=O)N2CCOCC2)c2cccc(C(F)(F)F)c2)c(F)c1` [Compound 532, N-(2-fluoro-4-(hydroxycarbamoyl)benzyl)-N-(3-(trifluoromethyl)phenyl)morpholine-4-carboxamide], the “level of TNFα secretion” value in series [2] (setting [7]) is “drastically decreased”.
In the series on NZB/W F1 female mice [3], `C[C@H]1C[C@@H]2[C@H]([C@@H](O)C[C@@]3(C)[C@H]2CC[C@]3(O)C(=O)CO)[C@@]2(C)C=CC(=O)C=C12` [Methylprednisolone, reference compound] showed an IFN-γ in serum of 0.07 ± 0.07 pg/mL, an IL22 in serum of 17.68 ± 4.49 pg/mL, an IL-1α in serum of 666.21 ± 146.22 pg/mL and an IL-1β in serum of 0.65 ± 0.65 pg/mL. Besides, in the series on NZB/W F1 female mice [3], the IL-2 in serum stood at 0.09 ± 0.09 pg/mL, the IL-4 in serum is 1.49 ± 0.06 pg/mL, the IL-6 in serum worked out at 3.36 ± 0.92 pg/mL and the IL-23 in serum came out at 22.31 ± 17.13 pg/mL. For the same molecule, the TGF-β in serum in the series on NZB/W F1 female mice [3] stood at 66007.78 ± 5207.83 pg/mL. Further, in the series on NZB/W F1 female mice [4], the ALP was 207.45 ± 7.21 U/I, the ALT is on record as 24.09 ± 2.00* U/I, the AST is given as 52.09 ± 4.25* U/I and the Albumin was 2.52 ± 0.07* g/dl. In the series with NZB/W F1 female mice [4], this molecule gave a Ca of 9.35 ± 0.16 mg/dL, a Glucose of 189.27 ± 12.23 mg/dL, a TBIL of 0.41 ± 0.09 mg/dL and a TCHOL of 162.09 ± 8.97 mg/dL. Moreover, in the series on NZB/W F1 female mice [4], the TG was 251.82 ± 29.19 mg/dL and the TP is on record as 5.42 ± 0.11* g/dl. In the series with NZB/W F1 female mice [5], the “incidence rate of severe proteinuria of 300 mg/dl or more” value came to 20%. The “decrease of ratio of CD138+ cells” value in the series with NZB/W F1 female mice [6] was 16.3%.
